Assays:
[1] = molecular target: T1, Androgen receptor (Homo sapiens) (UniProt P10275); assay: Antagonist activity at recombinant androgen receptor (unknown origin) transfected in human PC-3 cells co-transfected with PSA and luciferase at 10 uM incubated for 24 hrs by dual luciferase reporter gene assay relative to control; type: cell-based
T1 sequence (whole entry): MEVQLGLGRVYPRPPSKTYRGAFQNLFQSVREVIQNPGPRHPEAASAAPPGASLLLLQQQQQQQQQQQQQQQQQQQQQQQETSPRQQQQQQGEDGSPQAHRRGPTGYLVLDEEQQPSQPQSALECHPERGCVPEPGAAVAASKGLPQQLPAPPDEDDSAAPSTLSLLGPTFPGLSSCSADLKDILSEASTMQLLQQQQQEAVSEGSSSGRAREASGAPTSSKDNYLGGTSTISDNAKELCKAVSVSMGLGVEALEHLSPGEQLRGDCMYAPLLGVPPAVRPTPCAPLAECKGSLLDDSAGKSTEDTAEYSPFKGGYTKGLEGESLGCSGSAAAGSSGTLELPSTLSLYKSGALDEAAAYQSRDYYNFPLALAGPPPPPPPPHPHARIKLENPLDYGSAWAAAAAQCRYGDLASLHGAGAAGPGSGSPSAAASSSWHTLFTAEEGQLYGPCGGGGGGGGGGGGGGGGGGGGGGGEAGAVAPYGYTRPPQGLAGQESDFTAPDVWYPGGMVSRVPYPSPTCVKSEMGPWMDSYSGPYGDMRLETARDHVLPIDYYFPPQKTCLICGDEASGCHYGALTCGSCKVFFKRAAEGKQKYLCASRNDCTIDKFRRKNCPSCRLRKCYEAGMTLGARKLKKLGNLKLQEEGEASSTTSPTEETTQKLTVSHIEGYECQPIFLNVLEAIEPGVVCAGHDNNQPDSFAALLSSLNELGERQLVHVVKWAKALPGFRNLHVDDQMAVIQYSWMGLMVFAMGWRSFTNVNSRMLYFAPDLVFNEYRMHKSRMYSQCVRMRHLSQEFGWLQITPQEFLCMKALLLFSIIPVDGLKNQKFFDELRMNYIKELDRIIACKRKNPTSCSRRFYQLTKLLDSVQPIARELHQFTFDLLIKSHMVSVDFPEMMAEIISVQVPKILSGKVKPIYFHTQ

LNCaP = assay: Antiproliferative activity against human LNCAP cells assessed as reduction in cell growth incubated for 72 hrs by MTT assay
[2] = Antiproliferative activity against human 22Rv1 cells assessed as reduction in cell growth incubated for 72 hrs by MTT assay; conditions: H22, 72 h
[3] = molecular target: T2, Androgen receptor (Rattus norvegicus) (UniProt P15207); conditions: filed as antagonist, time 1.0 min
T2 sequence (whole entry): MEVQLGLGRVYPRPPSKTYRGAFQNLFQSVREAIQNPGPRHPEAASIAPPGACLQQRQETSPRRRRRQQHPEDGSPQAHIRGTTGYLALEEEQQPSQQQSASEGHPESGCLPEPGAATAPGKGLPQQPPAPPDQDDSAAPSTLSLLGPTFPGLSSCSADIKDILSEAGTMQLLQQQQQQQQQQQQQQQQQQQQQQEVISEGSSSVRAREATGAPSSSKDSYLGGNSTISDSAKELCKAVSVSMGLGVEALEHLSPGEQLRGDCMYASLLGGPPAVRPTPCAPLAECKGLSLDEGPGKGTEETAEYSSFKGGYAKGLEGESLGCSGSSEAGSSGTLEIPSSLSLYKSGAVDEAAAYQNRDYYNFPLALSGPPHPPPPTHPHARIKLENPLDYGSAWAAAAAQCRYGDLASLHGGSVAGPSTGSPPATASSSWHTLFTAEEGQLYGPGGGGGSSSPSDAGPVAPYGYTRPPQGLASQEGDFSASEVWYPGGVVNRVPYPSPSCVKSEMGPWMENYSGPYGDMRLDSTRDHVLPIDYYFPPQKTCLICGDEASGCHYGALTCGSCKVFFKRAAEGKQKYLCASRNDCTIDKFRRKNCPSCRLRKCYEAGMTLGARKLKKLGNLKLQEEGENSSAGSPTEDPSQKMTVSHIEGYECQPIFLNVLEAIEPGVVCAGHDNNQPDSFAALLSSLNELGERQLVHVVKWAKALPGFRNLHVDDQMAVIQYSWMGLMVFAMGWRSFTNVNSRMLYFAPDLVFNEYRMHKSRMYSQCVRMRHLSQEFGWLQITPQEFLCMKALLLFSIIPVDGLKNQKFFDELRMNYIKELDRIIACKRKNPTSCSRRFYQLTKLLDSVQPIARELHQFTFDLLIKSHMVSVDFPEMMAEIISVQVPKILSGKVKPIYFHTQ

[4] = molecular target: T3, Glucocorticoid receptor (Homo sapiens) (UniProt P04150); conditions: filed as antagonist, time 1.0 min
T3 sequence (whole entry): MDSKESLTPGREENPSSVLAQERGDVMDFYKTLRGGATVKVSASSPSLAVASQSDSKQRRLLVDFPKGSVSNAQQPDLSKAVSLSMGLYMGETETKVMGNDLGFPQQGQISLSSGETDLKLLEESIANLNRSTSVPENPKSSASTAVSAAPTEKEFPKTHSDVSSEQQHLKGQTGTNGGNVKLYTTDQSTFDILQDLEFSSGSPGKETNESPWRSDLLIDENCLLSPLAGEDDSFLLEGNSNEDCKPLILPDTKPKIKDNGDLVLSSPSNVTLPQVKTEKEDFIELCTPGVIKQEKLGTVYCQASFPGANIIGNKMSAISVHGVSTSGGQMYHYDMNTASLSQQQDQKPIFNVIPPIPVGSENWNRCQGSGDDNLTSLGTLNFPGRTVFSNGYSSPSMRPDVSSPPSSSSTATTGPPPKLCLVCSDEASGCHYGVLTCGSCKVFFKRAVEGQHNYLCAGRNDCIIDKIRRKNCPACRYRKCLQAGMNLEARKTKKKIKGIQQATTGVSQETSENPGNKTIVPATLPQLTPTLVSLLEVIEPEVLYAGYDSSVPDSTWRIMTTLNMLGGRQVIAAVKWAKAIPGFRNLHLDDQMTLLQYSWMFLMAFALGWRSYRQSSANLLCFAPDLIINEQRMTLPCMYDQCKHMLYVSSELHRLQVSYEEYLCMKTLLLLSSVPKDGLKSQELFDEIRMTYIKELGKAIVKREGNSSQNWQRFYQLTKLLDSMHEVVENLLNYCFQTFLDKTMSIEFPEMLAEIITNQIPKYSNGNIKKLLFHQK

[5] = Effect on androgen receptor expression in human LNCaP cells at 1 and 10 uM incubated for 24 hrs by Western blot analysis; type: ADME, cell-based; conditions: dose 1-10 µM
[6] = Effect on glucocorticoid receptor expression in human PC-3 cells at 10 uM incubated for 24 hrs by Western blot analysis; type: ADME, cell-based; conditions: pc-3, 24 h
Androgen receptor = molecular target: T4, Androgen receptor (Homo sapiens, UniProt P10275); assay: Antagonist activity at recombinant androgen receptor (unknown origin) transfected in human LNCaP cells co-transfected with PSA and luciferase incubated for 24 hrs by dual luciferase reporter gene assay; type: cell-based
T4 sequence (P10275 whole entry): T1 sequence (whole entry)

inhibition [1]	SMILES	other results
> 20%	NC(=O)c1ccn(-c2cccc(NC(=O)C3(NC(=O)NCc4ccccc4)CCCC3)c2)n1	–
> 20%	COc1cc2cc(C(=O)N[C@H](C)C(=O)Nc3nc4ccccc4s3)[nH]c2c(OC)c1OC	–
> 20%	COc1ccc([C@H](NC(=O)c2cccc(S(=O)(=O)N3C[C@H](C)C[C@@H](C)C3)c2)c2nccn2C)cc1	–
> 20%	CCc1ccc(-c2nn(C)c(=O)c3c2CCCC3)cc1S(=O)(=O)NCc1cccc(OC)c1	–
> 20%	COc1cccc(-c2ccc(N3CCN(C(=O)CN(Cc4ccccc4)C(=O)c4ccccc4C)CC3)nn2)c1	–
–	CNC(=O)c1ccc(N2C(=S)N(c3ccc(C#N)c(C(F)(F)F)c3)C(=O)C2(C)C)cc1F [ENZALUTAMIDE]	IC50 (LNCaP): 7.9 µM; IC50 [2]: > 40 µM; Kapp [3]: 24 µM
–	CC#C[C@]1(O)CC[C@H]2[C@@H]3CCC4=CC(=O)CCC4=C3[C@@H](c3ccc(N(C)C)cc3)C[C@@]21C	Kapp [4]: 32 µM
> 20%	COc1ccccc1[C@H]1[C@H](Oc2cccc(C#N)c2)C(=O)N1Cc1cccc(N2CCCC2=O)c1	–
–	CCOC(=O)c1ccc(NC(=O)c2cccc(S(=O)(=O)N3CCCc4ccccc43)c2)s1	Activity [5]: Non-Toxic; Activity [6]: Non-Toxic; IC50 (Androgen receptor): 2.03 µM; Kapp [3]: 15 µM
> 20%	CCOC(=O)C1CCN(C(=O)Cc2ccc(N(Cc3ccccc3)C(=O)COc3ccccc3)cc2)CC1	–
> 20%	Cc1nc(-c2ccc(C(C)C)c(S(=O)(=O)Nc3cccc(C#N)c3)c2)cs1	–

Source: ChEMBL document CHEMBL4665623, “Rational drug design for androgen receptor and glucocorticoids receptor dual antagonist” (Eur J Med Chem, 2019)
